Data taken from ChEMBL document CHEMBL1134717 (Bioorg Med Chem Lett, 2001).
pKi: −log10 of the molar value.

Columns and labels:
[1] = molecular target: Kappa-type opioid receptor (Cavia porcellus, UniProt P41144); assay: Binding affinity towards guinea pig Opioid receptor kappa 1 using radioligand [3H]U-69593
Mu-type opioid receptor = Mu-type opioid receptor (Cavia porcellus, UniProt P97266); assay: Binding affinity towards Opioid receptor mu 1 of guinea pig brain membranes using radioligand 0.25 nM [3H]DAMGO
Mu-type opioid receptor, sequence (P97266 whole entry): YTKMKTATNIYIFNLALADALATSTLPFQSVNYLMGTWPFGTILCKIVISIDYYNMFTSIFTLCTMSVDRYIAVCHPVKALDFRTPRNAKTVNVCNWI

Kappa-type opioid receptor, sequence (P41144 whole entry): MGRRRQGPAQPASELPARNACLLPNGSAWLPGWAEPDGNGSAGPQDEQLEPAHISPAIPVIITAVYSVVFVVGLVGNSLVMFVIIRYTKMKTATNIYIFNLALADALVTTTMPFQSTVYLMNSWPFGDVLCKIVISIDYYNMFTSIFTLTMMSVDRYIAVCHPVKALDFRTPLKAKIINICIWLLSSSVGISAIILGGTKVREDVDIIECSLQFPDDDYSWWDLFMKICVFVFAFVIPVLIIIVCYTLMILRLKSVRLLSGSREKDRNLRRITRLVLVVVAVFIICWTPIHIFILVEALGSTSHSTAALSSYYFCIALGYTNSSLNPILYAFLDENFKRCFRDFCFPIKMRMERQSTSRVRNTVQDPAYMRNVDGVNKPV

Compound | pKi [1] | pKi (Mu-type opioid receptor)
CN1CC[C@]23c4c5ccc(C(N)=O)c4OC2C(O)C=C[C@H]3[C@H]1C5 (stereo partly drawn) | 5.70 | 7.47
CNC(=O)c1ccc2c3c1OC1C(O)C=C[C@H]4[C@@H](C2)N(C)CC[C@]314 (stereo partly drawn) | < 5.00 | 6.36
CN(C)C(=O)c1ccc2c3c1OC1C(O)C=C[C@H]4[C@@H](C2)N(C)CC[C@]314 (stereo partly drawn) | < 5.00 | –
NC(=O)c1ccc2c3c1O[C@H]1C(=O)CC[C@@]4(O)[C@@H](C2)N(CC2CC2)CC[C@]314 | 7.66 | 8.72
C[C@H]1[C@H]2Cc3ccc(O)cc3[C@]1(C)CCN2CC1CC1 [CYCLAZOCINE] | 9.74 | –
